Source: patent US11840686B2, “Modulation of prekallikrein (PKK) expression” (Ionis Pharmaceuticals, Inc., priority 2013, dated 2023)
Strand notation (5' to 3'): a small letter for the sugar, then the base; units joined by * are phosphorothioate-linked, units joined directly phosphodiester-linked; [ ] holds rarer units or linkages, { } end groups; capitals alone tell only the bases. e = 2'-O-(2-methoxyethyl) (MOE); [5mC] = 5-methylcytosine; d = 2'-deoxy (DNA)

Test system: human PKK mRNA
Test: Antisense inhibition of human PKK mRNA in HepaRG cells, 5,000 nM (Example 2)
Type: cell-based
Summary of the method: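 Percent inhibition of PKK mRNA is reported relative to untreated cells, after adjustment for total RNA by RIBOGREEN. Gapmers of 16–20 nucleosides with 2′-MOE wings were delivered at 5,000 nM by electroporation into HepaRG cells and left for roughly 24 hours before RNA isolation.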

[1] = HepaRG cells, 5,000 nM antisense oligonucleotide, 5-10-5 gapmers, Table 17
[2] = HepaRG cells, electroporation, 5,000 nM antisense oligonucleotide, approx. 24 hours, primer probe set RTS3454, relative to untreated control cells, Table 11
[3] = HepaRG cells, electroporation, 5,000 nM antisense oligonucleotide, approx. 24 hours, primer probe set RTS3454, relative to untreated control cells, Table 12
[4] = Table 9 experiment, HepaRG cells, 20,000 cells per well, electroporation with 5,000 nM antisense oligonucleotide, approx. 24 hours, PKK mRNA by RT-PCR (RTS3454), relative to untreated control cells
[5] = Table 10 experiment, HepaRG cells, 20,000 cells per well, electroporation with 5,000 nM antisense oligonucleotide, approx. 24 hours, PKK mRNA by RT-PCR (RTS3454), relative to untreated control cells
[6] = human PKK mRNA in HepaRG cells, 5-10-5 gapmers, Table 14
[7] = Table 7, HepaRG cells, electroporation with 5,000 nM antisense oligonucleotide, approx. 24 hours, PKK mRNA by RT-PCR (RTS3454), relative to untreated control cells
[8] = HepaRG cells, electroporation with 5,000 nM antisense oligonucleotide, approximately 24 hours, PKK mRNA by RT-PCR (RTS3454), relative to untreated control cells, Table 6 experiment
[9] = human PKK mRNA, HepaRG cells, 5,000 nM antisense oligonucleotide, Table 18
[10] = HepaRG cells, 5,000 nM antisense oligonucleotide, 5-10-5 gapmers, Table 16
[11] = Table 8, HepaRG cells, electroporation with 5,000 nM antisense oligonucleotide, approx. 24 hours, PKK mRNA by RT-PCR (RTS3454), relative to untreated control cells
[12] = Table 13, human PKK mRNA in HepaRG cells, 5-10-5 gapmers

Substance: 547071 (eG*e[5mC]*eA*eG*e[5mC]*d[5mC]*d[5mC]*d[5mC]*d[5mC]*d[5mC]*dA*dG*dA*dA*dA*eT*e[5mC]*e[5mC]*e[5mC]*eA; antisense) [compound 547071]
- % inhibition [1]: 27%

Substance: 547501 (antisense eA*eT*eT*eG*e[5mC]*d[5mC]*dT*dA*dG*dA*d[5mC]*dT*d[5mC]*dT*dG*eG*eA*e[5mC]*eT*eG) [compound 547501]
- % inhibition [2]: 55%

Substance: 546683 (eT*e[5mC]*e[5mC]*eT*eA*dT*d[5mC]*d[5mC]*dG*dT*dG*dT*dT*d[5mC]*dA*eG*e[5mC]*eT*eG*eT; antisense) [compound 546683]
- % inhibition [3]: 69%

Substance: 547481 (antisense e[5mC]*e[5mC]*eT*eT*e[5mC]*dT*dT*dT*dA*dT*dA*dG*d[5mC]*d[5mC]*dA*eG*e[5mC]*eA*e[5mC]*eA) [compound 547481]
- % inhibition [4]: 71%
- % inhibition [5]: 77%

Substance: 546503 (eG*eT*eG*eA*eT*dG*d[5mC]*dG*dA*dT*dT*dT*dT*d[5mC]*d[5mC]*eA*eT*eG*e[5mC]*eA; antisense) [compound 546503]
- % inhibition [3]: 53%

Substance: 547522 (antisense eG*eA*eA*eA*eG*d[5mC]*dG*dG*dG*d[5mC]*dT*dT*d[5mC]*dA*dG*e[5mC]*e[5mC]*eA*eG*eA) [compound 547522]
- % inhibition [2]: 73%

Substance: 547589 (eT*eA*eA*e[5mC]*eT*dA*dT*dA*dA*d[5mC]*dA*dG*dT*dA*dT*e[5mC]*eA*e[5mC]*eT*eG; antisense) [compound 547589]
- % inhibition [6]: 36%

Substance: 547490 (antisense eG*eT*eA*eG*eA*d[5mC]*dA*d[5mC]*d[5mC]*dA*dG*dG*dT*dT*dG*e[5mC]*eT*e[5mC]*e[5mC]*e[5mC]) [compound 547490]
- % inhibition [2]: 55%

Substance: 547370 (e[5mC]*eA*eA*eA*eA*dG*d[5mC]*dA*dT*d[5mC]*dT*dG*dG*dA*dG*eT*eG*eA*eG*eA; antisense) [compound 547370]
- % inhibition [7]: 73%

Substance: 546166 (eT*eG*eT*e[5mC]*eA*dT*dT*dG*dA*dT*dT*dG*dA*dA*d[5mC]*eT*eT*eG*e[5mC]*eT; antisense) [compound 546166]
- % inhibition (HepaRG cells, electroporation with 5,000 nM antisense oligonucleotide, approximately 24 hours, PKK mRNA by RT-PCR (RTS3454), relative to untreated control cells, Table 5 experiment): 70%

Substance: 547008 (eT*eT*eG*eG*eT*dG*dG*dT*dG*dG*dG*dA*dT*dT*dG*eG*eT*eG*eG*eT; antisense) [compound 547008]
- % inhibition [1]: 81%

Substance: 547599 (antisense eT*eT*e[5mC]*e[5mC]*eT*dA*dT*dA*dA*d[5mC]*dT*dA*dT*dA*dA*e[5mC]*eA*eA*eT*eA) [compound 547599]
- % inhibition [6]: 4%

Substance: 547495 (antisense eG*e[5mC]*eT*eG*eG*dT*dG*dA*d[5mC]*dT*dG*d[5mC]*dA*dT*d[5mC]*eT*eG*eA*eG*e[5mC]) [compound 547495]
- % inhibition [2]: 61%

Substance: 547473 (antisense eT*eT*eT*eG*eG*dA*dT*dT*dT*d[5mC]*dA*d[5mC]*d[5mC]*dT*dT*eT*e[5mC]*eT*e[5mC]*e[5mC]) [compound 547473]
- % inhibition [4]: 5%
- % inhibition [5]: 26%

Substance: 547343 (antisense e[5mC]*eA*e[5mC]*eA*eT*dT*dA*dA*dA*dA*dT*dT*dG*dA*d[5mC]*eT*e[5mC]*e[5mC]*eT*e[5mC]) [compound 547343]
- % inhibition [8]: 78%

Substance: 548740 (DNA eT*eG*eT*eA*d[5mC]*dT*dA*dG*dT*dT*dT*d[5mC]*d[5mC]*eT*eA*eT*eA; antisense) [compound 548740]
- % inhibition [9]: 0%

Substance: 547707 (antisense eT*eG*eA*eA*eA*dA*dG*d[5mC]*d[5mC]*dA*d[5mC]*dG*d[5mC]*d[5mC]*d[5mC]*eT*eT*eA*eG*e[5mC]) [compound 547707]
- % inhibition [10]: 32%

Substance: 547531 (antisense eT*eT*eA*eT*eT*dT*d[5mC]*dA*d[5mC]*dA*dA*d[5mC]*dA*d[5mC]*dA*e[5mC]*eA*eG*eT*e[5mC]) [compound 547531]
- % inhibition [3]: 69%

Substance: 546851 (eA*eG*eT*eA*eT*d[5mC]*dA*d[5mC]*dT*dG*dT*d[5mC]*d[5mC]*dT*dA*eT*eA*eT*e[5mC]*eA; antisense) [compound 546851]
- % inhibition [6]: 81%

Substance: 547015 (eG*eG*eT*eG*eG*dT*dG*dG*dG*dA*dT*dT*dG*dG*dT*eG*e[5mC]*eT*eG*eA; antisense) [compound 547015]
- % inhibition [1]: 55%

Substance: 546354 (antisense eG*eT*eA*e[5mC]*eT*d[5mC]*dA*dG*d[5mC]*dG*dA*d[5mC]*dT*dT*dT*eG*eG*eT*eG*eT) [compound 546354]
- % inhibition [2]: 47%

Substance: 546707 (eG*e[5mC]*eA*eA*eG*dT*d[5mC]*dA*dA*dA*dG*dA*dG*dT*dG*eT*e[5mC]*e[5mC]*eA*e[5mC]; antisense) [compound 546707]
- % inhibition [3]: 73%

Substance: 546912 (eA*e[5mC]*eA*eT*e[5mC]*dA*d[5mC]*dT*dG*dT*d[5mC]*d[5mC]*dT*dA*dT*eA*eA*e[5mC]*eT*eA; antisense) [compound 546912]
- % inhibition [10]: 26%

Substance: 548710 (DNA eT*eG*eT*dA*d[5mC]*dT*dA*dG*dT*dT*dT*d[5mC]*d[5mC]*eT*eA*eT; antisense) [compound 548710]
- % inhibition (HepaRG cells, 5,000 nM antisense oligonucleotide, human PKK mRNA, Table 18): 0%

Substance: 547750 (eT*eG*eG*eT*eT*dG*dG*dT*dG*dG*d[5mC]*dG*dG*dG*dA*eT*e[5mC]*eG*eG*eT; antisense) [compound 547750]
- % inhibition [1]: 41%

Substance: 546284 (antisense e[5mC]*eA*e[5mC]*eA*eA*dT*d[5mC]*dT*d[5mC]*dA*dA*dA*dG*dA*dG*eT*eA*eA*e[5mC]*e[5mC]) [compound 546284]
- % inhibition [11]: 89%

Substance: 547336 (antisense eT*eT*eT*eA*eT*dA*dA*dA*dT*dG*dT*d[5mC]*dT*d[5mC]*dG*eA*eT*eG*eG*e[5mC]) [compound 547336]
- % inhibition [8]: 81%

Substance: 547554 (antisense eG*e[5mC]*eT*e[5mC]*eT*dG*dA*dT*dT*dG*dG*dG*dT*d[5mC]*dA*e[5mC]*e[5mC]*eA*e[5mC]*eA) [compound 547554]
- % inhibition [3]: 50%

Substance: 547339 (antisense eT*eA*eT*e[5mC]*eA*dA*d[5mC]*dT*d[5mC]*d[5mC]*dT*dT*dT*dA*dT*eA*eA*eA*eT*eG) [compound 547339]
- % inhibition [8]: 42%

Substance: 547497 (antisense eA*e[5mC]*eT*eG*e[5mC]*dT*dT*d[5mC]*dT*d[5mC]*dA*dT*dG*d[5mC]*dT*eG*eG*eT*eG*eA) [compound 547497]
- % inhibition [2]: 68%

Substance: 546186 (antisense eA*eT*eG*eT*e[5mC]*dT*d[5mC]*dG*dA*dT*dG*dG*d[5mC]*dA*dA*eG*e[5mC]*eA*e[5mC]*eT) [compound 546186]
- % inhibition [8]: 84%

Substance: 547631 (antisense e[5mC]*eA*e[5mC]*eT*eG*dT*d[5mC]*d[5mC]*dT*dA*dT*dA*dT*d[5mC]*dA*e[5mC]*eT*e[5mC]*eT*eA) [compound 547631]
- % inhibition (human PKK mRNA, HepaRG cells, 5-10-5 motif oligonucleotides targeting SEQ ID NO: 1 and 10): 85%

Substance: 547566 (eA*eA*eG*eA*eG*dT*dT*dG*dG*dG*dA*dT*dG*d[5mC]*dG*eA*e[5mC]*eT*e[5mC]*eT; antisense) [compound 547566]
- % inhibition [12]: 76%

Substance: 546363 (antisense e[5mC]*eT*eT*e[5mC]*eT*d[5mC]*dA*dT*dG*d[5mC]*dT*dG*dG*dT*dG*eA*e[5mC]*eT*eG*e[5mC]) [compound 546363]
- % inhibition [2]: 81%

Substance: 548766 (antisense eT*eA*eT*eA*dT*d[5mC]*dA*d[5mC]*dT*dG*dT*d[5mC]*d[5mC]*eT*eA*eT*eA) [compound 548766]
- % inhibition [9]: 36%

Substance: 546499 (eT*e[5mC]*e[5mC]*eA*eT*dG*d[5mC]*dA*dT*dA*d[5mC]*dT*d[5mC]*dG*d[5mC]*e[5mC]*eT*eT*eT*eG; antisense) [compound 546499]
- % inhibition [3]: 20%

Substance: 547330 (antisense e[5mC]*eT*eT*eA*eT*dT*dT*dG*dA*dT*dG*dA*d[5mC]*d[5mC]*dA*e[5mC]*eA*eT*eT*eG) [compound 547330]
- % inhibition [8]: 60%

Substance: 547386 (eA*e[5mC]*eT*eT*eG*dG*dT*dG*dT*dG*d[5mC]*d[5mC]*dA*d[5mC]*dT*eT*eT*e[5mC]*eA*eG; antisense) [compound 547386]
- % inhibition [7]: 78%

Substance: 546285 (antisense eG*eT*eT*eA*e[5mC]*dA*d[5mC]*dA*dA*dT*d[5mC]*dT*d[5mC]*dA*dA*eA*eG*eA*eG*eT) [compound 546285]
- % inhibition [11]: 76%

Substance: 546873 (e[5mC]*eA*eA*eT*eA*dT*d[5mC]*dA*d[5mC]*dT*dG*dT*dA*d[5mC]*d[5mC]*eT*eA*eT*eA*eA; antisense) [compound 546873]
- % inhibition [6]: 34%

Substance: 547315 (antisense eA*eA*e[5mC]*eT*eG*d[5mC]*dA*d[5mC]*d[5mC]*dT*dG*dT*dT*d[5mC]*dG*eA*eT*eG*eT*eA) [compound 547315]
- % inhibition [8]: 50%

Substance: 546735 (e[5mC]*eA*eA*e[5mC]*e[5mC]*dT*dG*dT*d[5mC]*d[5mC]*dA*dT*dT*d[5mC]*d[5mC]*e[5mC]*eT*eG*eG*eG; antisense) [compound 546735]
- % inhibition [12]: 46%
